Results on 22 molecules are retold here after patent publication US9688676B2, “Tyrosine kinase inhibitors” (PRINCIPIA BIOPHARMA INC., priority 2015, dated 2017).

Chain of BTK (Q06187 whole entry): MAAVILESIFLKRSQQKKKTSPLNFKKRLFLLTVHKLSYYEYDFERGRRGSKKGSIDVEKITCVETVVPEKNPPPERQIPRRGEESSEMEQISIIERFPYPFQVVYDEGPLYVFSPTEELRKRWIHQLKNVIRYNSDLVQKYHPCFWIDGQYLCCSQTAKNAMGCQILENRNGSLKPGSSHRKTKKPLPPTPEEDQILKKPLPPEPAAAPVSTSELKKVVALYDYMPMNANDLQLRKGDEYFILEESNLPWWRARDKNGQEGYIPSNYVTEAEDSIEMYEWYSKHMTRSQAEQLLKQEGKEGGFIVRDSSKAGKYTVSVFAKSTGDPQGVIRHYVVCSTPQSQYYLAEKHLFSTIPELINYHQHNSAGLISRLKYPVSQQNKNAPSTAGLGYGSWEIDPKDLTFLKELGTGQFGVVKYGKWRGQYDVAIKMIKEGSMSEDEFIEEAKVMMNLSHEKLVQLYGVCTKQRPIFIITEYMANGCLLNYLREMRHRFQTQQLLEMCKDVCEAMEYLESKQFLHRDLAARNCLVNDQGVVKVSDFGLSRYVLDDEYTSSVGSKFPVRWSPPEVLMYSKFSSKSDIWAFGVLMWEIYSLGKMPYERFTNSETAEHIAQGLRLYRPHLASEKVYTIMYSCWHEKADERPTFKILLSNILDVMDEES

The test addresses BTK (Homo sapiens (Human), UniProt Q06187). Briefly: BTK enzymatic activity assay (Caliper-based kinase assay). Particulars: human recombinant BTK 0.5 nM, ATP 16 μM, 3 h room temperature. The format is biochemical. The protocol:
A Caliper-based kinase assay (Caliper Life Sciences, Hopkinton, Mass.) was used to measure inhibition of BTK kinase activity of a compound of the present disclosure. […] The reaction was then terminated with EDTA, final concentration 20 mM and the phosphorylated reaction product was quantified on a Caliper Desktop Profiler (Caliper LabChip 3000). […] This value is presented as the IC50.
What is called IC50 is the concentration needed to halve the response being measured. On to `CC(=O)N1CCN(C(C)(C)C=C(C#N)C(=O)N2CCC[C@@H](n3c(=O)n(-c4ccc(Oc5ccccc5)cc4)c4c(N)nccc43)C2)CC1` [Compound 44, (R)-4-(4-acetylpiperazin-1-yl)-2-(3-(4-amino-2-oxo-3-(4-phenoxyphenyl)-2,3-dihydro-1H-imidazo[4,5-c]pyridin-1-yl)piperidine-1-carbonyl)-4-methylpent-2-enenitrile], for which the IC50 was found to be 3.3 nM.

For the molecule `CC(C)(C=C(C#N)C(=O)N1CCC[C@@H](n2c(=O)n(-c3ccc(Oc4ccccc4)cc3)c3c(N)nccc32)C1)N1CCNCC1` [Compound 47, (R)-2-(3-(4-amino-2-oxo-3-(4-phenoxyphenyl)-2,3-dihydro-1H-imidazo[4,5-c]pyridin-1-yl)piperidine-1-carbonyl)-4-methyl-4-(piperazin-1-yl)pent-2-enenitrile], the IC50 was 3.1 nM.

Turning to `CC(C)(C=C(C#N)C(=O)N1CCC[C@@H](n2c(=O)n(-c3ccc(Oc4ccccc4)cc3)c3c(N)nccc32)C1)N1CCN(C2(C)COC2)CC1` [Compound 30, (R)-2-(3-(4-amino-2-oxo-3-(4-phenoxyphenyl)-2,3-dihydro-1H-imidazo[4,5-c]pyridin-1-yl)piperidine-1-carbonyl)-4-methyl-4-(4-(3-methyloxetan-3-yl)piperazin-1-yl)pent-2-enenitrile], the IC50 was found to be 1.5 nM.

Consider `CC(C)(C=C(C#N)C(=O)N1CCC[C@@H](n2c(=O)n(-c3ccc(Oc4ccccc4)cc3)c3c(N)nccc32)C1)N1CCn2cnnc2C1` [Compound 29, (R)-2-(3-(4-amino-2-oxo-3-(4-phenoxyphenyl)-2,3-dihydro-1H-imidazo[4,5-c]pyridin-1-yl)piperidine-1-carbonyl)-4-(5,6-dihydro-[1,2,4]triazolo[4,3-a]pyrazin-7(8H)-yl)-4-methylpent-2-enenitrile], for which the IC50 was 1.8 nM.

In the case of `CCN1CCN(C(C)(C)C=C(C#N)C(=O)N2CCC[C@@H](n3c(=O)n(-c4ccc(Oc5ccccc5)cc4)c4c(N)nccc43)C2)CC1=O` [Compound 40, (R)-2-(3-(4-amino-2-oxo-3-(4-phenoxyphenyl)-2,3-dihydro-1H-imidazo[4,5-c]pyridin-1-yl)piperidine-1-carbonyl)-4-(4-ethyl-3-oxopiperazin-1-yl)-4-methylpent-2-enenitrile], the IC50 turned out to be 5.7 nM.

`CN1CCN(C(C)(C)C=C(C#N)C(=O)N2CCC[C@H]2Cn2c(=O)n(-c3ccc(Oc4ccccc4)cc3)c3c(N)nccc32)CC1=O` [Compound 35, (S)-2-(2-((4-amino-2-oxo-3-(4-phenoxyphenyl)-2,3-dihydro-1H-imidazo[4,5-c]pyridin-1-yl)methyl)pyrrolidine-1-carbonyl)-4-methyl-4-(4-methyl-3-oxopiperazin-1-yl)pent-2-enenitrile]: the IC50 stood at 26.2 nM.

For `CO[C@@H]1CCN(C(C)(C)C=C(C#N)C(=O)N2CCC[C@@H](n3c(=O)n(-c4ccc(Oc5ccccc5)cc4)c4c(N)nccc43)C2)C1` [Compound 60, 2-((R)-3-(4-amino-2-oxo-3-(4-phenoxyphenyl)-2,3-dihydro-1H-imidazo[4,5-c]pyridin-1-yl)piperidine-1-carbonyl)-4-((R)-3-methoxypyrrolidin-1-yl)-4-methylpent-2-enenitrile], the IC50 came out at 2.4 nM.

For `N#CC(=CC(CCO)CCO)C(=O)N1CCC[C@@H](n2c(=O)n(-c3ccc(Oc4ccccc4)cc3)c3c(N)nccc32)C1` [Compound 11, (R)-2-(3-(4-amino-2-oxo-3-(4-phenoxyphenyl)-2,3-dihydro-1H-imidazo[4,5-c]pyridin-1-yl)piperidine-1-carbonyl)-6-hydroxy-4-(2-hydroxyethyl)hex-2-enenitrile], the IC50 was found to be 78.6 nM.

Regarding `CC#CC(=O)N1CCC[C@H]1Cn1c(=O)n(-c2ccc(Oc3ccccc3)cc2)c2c(N)nccc21` [Compound 23, (S)-4-amino-1-((1-(but-2-ynoyl)pyrrolidin-2-yl)methyl)-3-(4-phenoxyphenyl)-1H-imidazo[4,5-c]pyridin-2(3H)-one], the IC50 came to 25.9 nM.

For the molecule `CC(C)(C)OC(=O)N1CCN(C(C)(C)C=C(C#N)C(=O)N2CCC[C@@H](n3c(=O)n(-c4ccc(Oc5ccccc5)cc4)c4c(N)nccc43)C2)CC1` [Compound 43, (R)-tert-butyl 4-(5-(3-(4-amino-2-oxo-3-(4-phenoxyphenyl)-2,3-dihydro-1H-imidazo[4,5-c]pyridin-1-yl)piperidin-1-yl)-4-cyano-2-methyl-5-oxopent-3-en-2-yl)piperazine-1-carboxylate], the IC50 was 22.5 nM.

`N#CC(=CC1CC1(F)F)C(=O)N1CCC[C@@H](n2c(=O)n(-c3ccc(Oc4ccccc4)cc3)c3c(N)nccc32)C1` (stereo partly drawn) [Compound 52, (R)-2-(3-(4-amino-2-oxo-3-(4-phenoxyphenyl)-2,3-dihydro-1H-imidazo[4,5-c]pyridin-1-yl)piperidine-1-carbonyl)-3-(2,2-difluorocyclopropyl)acrylonitrile]: the IC50 amounted to 12 nM.

As for `CC(C)(C=C(C#N)C(=O)N1CCC[C@@H](n2c(=O)n(-c3ccc(Oc4ccccc4)cc3)c3c(N)nccc32)C1)N1[C@@H]2CC[C@H]1COC2` [Compound 45, 2-((R)-3-(4-amino-2-oxo-3-(4-phenoxyphenyl)-2,3-dihydro-1H-imidazo[4,5-c]pyridin-1-yl)piperidine-1-carbonyl)-4-((1R,5S)-3-oxa-8-azabicyclo[3.2.1]octan-8-yl)-4-methylpent-2-enenitrile], the IC50 worked out at 25.1 nM.

`C[C@@H]1CN(C(C)(C)C=C(C#N)C(=O)N2CCC[C@@H](n3c(=O)n(-c4ccc(Oc5ccccc5)cc4)c4c(N)nccc43)C2)C[C@H](C)N1` [Compound 19, 2-((R)-3-(4-amino-2-oxo-3-(4-phenoxyphenyl)-2,3-dihydro-1H-imidazo[4,5-c]pyridin-1-yl)piperidine-1-carbonyl)-4-((3R,5S)-3,5-dimethylpiperazin-1-yl)-4-methylpent-2-enenitrile]: the IC50 stood at 7.8 nM.

Consider `Cc1cc(-n2c(=O)n([C@@H]3CCCN(C(=O)C(C#N)=CC(C)(C)N4CCN(C5COC5)CC4)C3)c3ccnc(N)c32)ccc1Oc1ccccc1` [Compound 28, (R)-2-(3-(4-amino-3-(3-methyl-4-phenoxyphenyl)-2-oxo-2,3-dihydro-1H-imidazo[4,5-c]pyridin-1-yl)piperidine-1-carbonyl)-4-methyl-4-(4-(oxetan-3-yl)piperazin-1-yl)pent-2-enenitrile], for which the IC50 amounted to 4.8 nM.

`CC1(C=C(C#N)C(=O)N2CCC[C@@H](n3c(=O)n(-c4ccc(Oc5ccccc5)cc4)c4c(N)nccc43)C2)CCOCC1` [Compound 37, (R)-2-(3-(4-amino-2-oxo-3-(4-phenoxyphenyl)-2,3-dihydro-1H-imidazo[4,5-c]pyridin-1-yl)piperidine-1-carbonyl)-3-(4-methyltetrahydro-2H-pyran-4-yl)acrylonitrile]: the IC50 came to 4.3 nM.

Consider `N#CC(=CC1CC[S+]([O-])CC1)C(=O)N1CCC[C@@H](n2c(=O)n(-c3ccc(Oc4ccccc4)cc3)c3c(N)nccc32)C1` (stereo partly drawn) [Compound 39, (R)-2-(3-(4-amino-2-oxo-3-(4-phenoxyphenyl)-2,3-dihydro-1H-imidazo[4,5-c]pyridin-1-yl)piperidine-1-carbonyl)-3-(1-oxidotetrahydro-2H-thiopyran-4-yl)acrylonitrile], for which the IC50 was 5.3 nM.

As to `N#CC(=CC1[C@H]2COC[C@@H]12)C(=O)N1CCC[C@@H](n2c(=O)n(-c3ccc(Oc4ccccc4)cc3)c3c(N)nccc32)C1` (stereo partly drawn) [Compound 53, 2-((R)-3-(4-amino-2-oxo-3-(4-phenoxyphenyl)-2,3-dihydro-1H-imidazo[4,5-c]pyridin-1-yl)piperidine-1-carbonyl)-3-((1R,5S)-3-oxabicyclo[3.1.0]hexan-6-yl)acrylonitrile], the IC50 came out at 4.2 nM.

Consider `N#CC(=CC1CC1)C(=O)N1CCC[C@@H](n2c(=O)n(-c3ccc(Oc4ccccc4)cc3)c3c(N)nccc32)C1` [Compound 41, (R)-2-(3-(4-amino-2-oxo-3-(4-phenoxyphenyl)-2,3-dihydro-1H-imidazo[4,5-c]pyridin-1-yl)piperidine-1-carbonyl)-3-cyclopropylacrylonitrile], for which the IC50 came to 3.1 nM.

For `CC(C)(C=C(C#N)C(=O)N1CCC[C@@H](n2c(=O)n(-c3ccc(Oc4c(F)cccc4F)cc3)c3c(N)nccc32)C1)N1CCN(C2COC2)CC1` [Compound 24, (R)-2-(3-(4-amino-3-(4-(2,6-difluorophenoxy)phenyl)-2-oxo-2,3-dihydro-1H-imidazo[4,5-c]pyridin-1-yl)piperidine-1-carbonyl)-4-methyl-4-(4-(oxetan-3-yl)piperazin-1-yl)pent-2-enenitrile], the IC50 stood at 4.7 nM.

In the case of `CN1CCN(C(=O)C(C)(C)C=C(C#N)C(=O)N2CCC[C@@H](n3c(=O)n(-c4ccc(Oc5ccccc5)cc4)c4c(N)nccc43)C2)CC1` [Compound 49, (R)-2-(3-(4-amino-2-oxo-3-(4-phenoxyphenyl)-2,3-dihydro-1H-imidazo[4,5-c]pyridin-1-yl)piperidine-1-carbonyl)-4,4-dimethyl-5-(4-methylpiperazin-1-yl)-5-oxopent-2-enenitrile], the IC50 is 12.8 nM.

In the case of `CC(C)(C=C(C#N)C(=O)N1CCC[C@@H](n2c(=O)n(-c3ccc(Oc4ccccc4)cc3)c3c(N)nccc32)C1)N1CCC(F)(F)C1` [Compound 58, (R)-2-(3-(4-amino-2-oxo-3-(4-phenoxyphenyl)-2,3-dihydro-1H-imidazo[4,5-c]pyridin-1-yl)piperidine-1-carbonyl)-4-(3,3-difluoropyrrolidin-1-yl)-4-methylpent-2-enenitrile], the IC50 was determined as 4.2 nM.

In the case of `CC(C)(C=C(C#N)C(=O)N1CCC[C@@H](n2c(=O)n(-c3ccc(Oc4ccccc4F)cc3)c3c(N)nccc32)C1)N1CCN(C2COC2)CC1` [Compound 38, (R)-2-(3-(4-amino-3-(4-(2-fluorophenoxy)phenyl)-2-oxo-2,3-dihydro-1H-imidazo[4,5-c]pyridin-1-yl)piperidine-1-carbonyl)-4-methyl-4-(4-(oxetan-3-yl)piperazin-1-yl)pent-2-enenitrile], the IC50 amounted to 5.7 nM.
